# Several values for one entry are separate records, joined by “and”; a condition that tells them apart may be missing. Equal values may be shown once. Where a name gives a salt, the structure may show the parent alone.
# Assays:
# serum calcium = experiment: Normal rat study: serum calcium level after oral administration; type: in vivo; set-up: Serum Ca: unit not given here; conditions: normal rats
# Experimental: (§1) After acclimatization, rats were divided into nine groups (n = 10/group) matched in terms of body weight, and their serum PTH and calcium levels. Vehicle, 0.5% (w/v) methyl cellulose (Wako Pure Chemical Industries, Ltd.) solution orally administered to vehicle treatment group rats. Evocalcet (0.03, 0.1, 0.3, or 1 mg/kg), or cinacalcet (1, 3, 10, or 30 mg/kg) were suspended in the vehicle solution and orally administered to each drug treatment group. Blood samples were collected from the tail vein before and at 0.5, 2, 4, 6, 8, and 24 h after the oral administration.
# (§2) The serum PTH level was measured using a Rat Intact PTH ELISA kit (Immutopics, Inc., San Clemente, CA). The serum calcium, phosphate and BUN levels were measured using an auto analyzer (Hitachi High-Technologies Corporation., Tokyo, Japan) or the following test kits: the Calcium E-test WAKO, the Phospha C-test WAKO, or the Blood Urea nitrogen B-test WAKO (Wako Pure Chemical Industries, Ltd., Osaka, Japan).
# serum PTH [1] = experiment: Serum PTH reduction in common marmosets; type: in vivo, common marmoset; set-up: Serum PTH levels: unit not given here
# Experimental: The study of effect of evocalcet on emesis in common marmoset was performed by referencing a previously reported method. The marmosets (n = 24) used for this study were housed in cages (460 × 600 × 655 mm) with environmental enrichments (wooden perches, swing, and balls) and acclimated for at least 4 weeks. The marmosets were fasted from evening on the day before administration. […] The serum PTH level was measured using a Porcine Intact PTH ELISA kit (Immutopics, Inc., San Clemente, CA, USA). To evaluate the emetic effects in marmosets, evocalcet (50 or 150 μg/kg) or cinacalcet (1500 or 5000 μg/kg) was orally administered (n = 6/drug, dose down titration, n = 12 in total). The observation of emesis was conducted until 4 h after the administration.
# [2] = rats; no reference given; cited from earlier work
# serum PTH [3] = experiment: Normal rat study: serum PTH level after oral administration; type: in vivo; conditions: normal rats
# Experimental: as §1, §2
# gastric emptying = experiment: Evaluation of gastric emptying in rats (phenol red); type: in vivo, rat
# Experimental: The study of gastric emptying in rats was performed by referencing a previously reported method. […] The rats were divided into eight body-weight-matched groups (n = 8/group). […] Ten minutes later, 0.05 w/v% phenol red, a non-absorbable marker solution (1.5 mL/body), was orally administered. Thirty minutes after the administration of phenol red, the rats were euthanized by cervical dislocation, and the gastric body clamped at the cardiac and pyloric part of the stomach was obtained. The stomach was homogenized by adding 0.1 M NaOH and centrifugated. The supernatant was mixed with 20 w/v% trichloroacetic acid. After centrifugation, the supernatant was mixed with the same volume of 0.5 mol/L NaOH, and the absorbance was measured at 560 nm. The gastric emptying rate was calculated by the following formula: […]=[1-(opticaldensity[[…])]×100
# [4] = cinacalcet 1 mg/kg oral, 0 h, group mean of 10 rats
# [5] = cinacalcet 1 mg/kg oral, 0 h, individual rat
# [6] = cinacalcet 1 mg/kg oral, 0.5 h, group mean of 10 rats
# [7] = cinacalcet 1 mg/kg oral, 0.5 h, individual rat
# [8] = cinacalcet 1 mg/kg oral, 2 h, group mean of 10 rats
# [9] = cinacalcet 1 mg/kg oral, 2 h, individual rat
# [10] = cinacalcet 1 mg/kg oral, 4 h, group mean of 10 rats
# [11] = cinacalcet 1 mg/kg oral, 4 h, individual rat
# [12] = cinacalcet 1 mg/kg oral, 6 h, group mean of 10 rats
# [13] = cinacalcet 1 mg/kg oral, 6 h, individual rat
# [14] = cinacalcet 1 mg/kg oral, 8 h, group mean of 10 rats
# [15] = cinacalcet 1 mg/kg oral, 8 h, individual rat
# [16] = cinacalcet 1 mg/kg oral, 24 h, group mean of 10 rats
# [17] = cinacalcet 1 mg/kg oral, 24 h, individual rat
# [18] = cinacalcet 3 mg/kg oral, 0 h, group mean of 10 rats
# [19] = cinacalcet 3 mg/kg oral, 0 h, individual rat
# [20] = cinacalcet 3 mg/kg oral, 0.5 h, individual rat
# [21] = cinacalcet 3 mg/kg oral, 2 h, individual rat
# [22] = cinacalcet 3 mg/kg oral, 4 h, individual rat
# [23] = cinacalcet 3 mg/kg oral, 6 h, individual rat
# [24] = cinacalcet 3 mg/kg oral, 8 h, individual rat
# [25] = cinacalcet 3 mg/kg oral, 24 h, individual rat
# [26] = single oral dose, vs vehicle group
smiles,measurement,setting,value
"C[C@@H](NCCCc1cccc(C(F)(F)F)c1)c1cccc2ccccc12 [cinacalcet, Cinacalcet hydrochloride, reference compound]",Serum Ca,serum calcium; [4],11.5
same,Serum Ca,serum calcium; [5],14.6 and 10.4 and 11.2 and 10.8 and 12.0 and 11.0 and 11.4
same,Serum Ca,serum calcium; [6],10.5
same,Serum Ca,serum calcium; [7],10.4 and 10.8 and 10.0 and 10.6 and 10.2
same,Serum Ca,serum calcium; [8],10.3
same,Serum Ca,serum calcium; [9],10.4 and 10.2 and 10.0 and 10.6
same,Serum Ca,serum calcium; [10],9.9
same,Serum Ca,serum calcium; [11],8.0 and 10.2 and 9.8 and 10.4 and 10.0
same,Serum Ca,serum calcium; [12],10.0
same,Serum Ca,serum calcium; [13],9.6 and 9.4 and 10.0 and 10.4 and 10.2
same,Serum Ca,serum calcium; [14],10.1
same,Serum Ca,serum calcium; [15],10.0 and 10.4 and 10.2 and 9.8
same,Serum Ca,serum calcium; [16],12.1
same,Serum Ca,serum calcium; [17],12.2 and 11.8 and 11.2 and 12.6 and 11.4 and 13.0 and 11.0 and 12.4
same,Serum Ca,serum calcium; [18],11.1
same,Serum Ca,serum calcium; [19],11.2 and 9.4 and 11.4
same,Serum Ca,"serum calcium; cinacalcet 3 mg/kg oral, 0.5 h, group mean of 10 rats",10.6
same,Serum Ca,serum calcium; [20],10.8 and 10.6 and 11.2 and 10.2
same,Serum Ca,"serum calcium; cinacalcet 3 mg/kg oral, 2 h, group mean of 10 rats",9.8
same,Serum Ca,serum calcium; [21],9.8 and 8.6 and 10.0
same,Serum Ca,"serum calcium; cinacalcet 3 mg/kg oral, 4 h, group mean of 10 rats",9.3
same,Serum Ca,serum calcium; [22],9.2 and 8.8 and 9.4
same,Serum Ca,"serum calcium; cinacalcet 3 mg/kg oral, 6 h, group mean of 10 rats",9.3
same,Serum Ca,serum calcium; [23],9.4 and 8.8 and 9.6
same,Serum Ca,"serum calcium; cinacalcet 3 mg/kg oral, 8 h, group mean of 10 rats",9.7
same,Serum Ca,serum calcium; [24],9.6 and 9.2 and 9.8
same,Serum Ca,"serum calcium; cinacalcet 3 mg/kg oral, 24 h, group mean of 10 rats",12.1
same,Serum Ca,serum calcium; [25],12.0 and 11.2 and 11.6
same,Serum Ca,"serum calcium; cinacalcet 10 mg/kg oral, 0 h, individual rat",9.6 and 11.4 and 10.6 and 11.2
same,Serum Ca,"serum calcium; cinacalcet 10 mg/kg oral, 0.5 h, individual rat",10.0 and 10.2 and 10.8 and 9.8
same,Serum Ca,"serum calcium; cinacalcet 10 mg/kg oral, 2 h, individual rat",8.6 and 9.6 and 9.4 and 9.2
same,Serum Ca,"serum calcium; cinacalcet 10 mg/kg oral, 4 h, individual rat",8.2 and 9.2 and 8.8
same,Serum Ca,"serum calcium; cinacalcet 10 mg/kg oral, 6 h, individual rat",8.0 and 8.8 and 8.6
same,Serum Ca,"serum calcium; cinacalcet 10 mg/kg oral, 8 h, individual rat",8.6 and 10.4 and 8.4 and 8.8
same,Serum Ca,"serum calcium; cinacalcet 10 mg/kg oral, 24 h, individual rat",11.4 and 11.6 and 11.0 and 10.2
same,Doses that significantly reduced the serum calcium level,serum calcium; [26],≥ 1 mg/kg
same,Serum PTH levels,"serum PTH [1]; 300 μg/kg, 1 h, individual animals",206.7 and 42.9 and 113.4
same,Serum PTH levels,"serum PTH [1]; 300 μg/kg, 1 h, mean",121.0
same,Serum PTH levels,"serum PTH [1]; 300 μg/kg, 4 h, individual animals",384.2 and 103.1 and 100.2
same,Serum PTH levels,"serum PTH [1]; 300 μg/kg, 4 h, mean",195.8
same,Serum PTH levels,"serum PTH [1]; 300 μg/kg, before administration, individual animals",327.6 and 84.8 and 116.8
same,Serum PTH levels,"serum PTH [1]; 300 μg/kg, before administration, mean",176.4
same,Serum PTH levels,"serum PTH [1]; 500 μg/kg, 1 h, individual animals",66.0 and 160.9 and 28.9
same,Serum PTH levels,"serum PTH [1]; 500 μg/kg, 1 h, mean",85.3
same,Serum PTH levels,"serum PTH [1]; 500 μg/kg, 4 h, individual animals",370.0 and 348.3 and 172.2
same,Serum PTH levels,"serum PTH [1]; 500 μg/kg, 4 h, mean",296.8
same,Serum PTH levels,"serum PTH [1]; 500 μg/kg, before administration, individual animals",370.0 and 298.9 and 61.2
same,Serum PTH levels,"serum PTH [1]; 500 μg/kg, before administration, mean",243.4
same,Minimum effective dose on PTH reduction,serum PTH [1]; oral,0.5 mg/kg
same,bioavailability,[2],1%-2%
same,Serum PTH,serum PTH [3]; [4],109.720
same,Serum PTH,serum PTH [3]; [5],125.722 and 130.447 and 67.586 and 199.824 and 100.664 and 97.298 and 150.924 and 89.996 and 55.272 and 79.471
same,Serum PTH,serum PTH [3]; [6],80.824
same,Serum PTH,serum PTH [3]; [7],82.661 and 77.184 and 76.842 and 101.034 and 110.106 and 55.958 and 55.844 and 88.538 and 77.412
same,Serum PTH,serum PTH [3]; [8],79.608
same,Serum PTH,serum PTH [3]; [9],48.013 and 15.500 and 63.091 and 101.472 and 98.442 and 56.814 and 145.553 and 109.841 and 112.583 and 44.766
same,Serum PTH,serum PTH [3]; [10],140.908
same,Serum PTH,serum PTH [3]; [11],61.596 and 118.199 and 215.679 and 200.323 and 159.521 and 92.828 and 169.313 and 166.494 and 115.974 and 109.149
same,Serum PTH,serum PTH [3]; [12],165.420
same,Serum PTH,serum PTH [3]; [13],193.418 and 170.704 and 168.342 and 210.841 and 173.065 and 135.125 and 169.319 and 98.407 and 166.633
same,Serum PTH,serum PTH [3]; [14],216.453
same,Serum PTH,serum PTH [3]; [15],174.106 and 258.920 and 229.591 and 209.695 and 192.029 and 200.519 and 209.009 and 246.914 and 151.294 and 292.451
same,Serum PTH,serum PTH [3]; [16],137.047
same,Serum PTH,serum PTH [3]; [17],113.627 and 116.500 and 103.304 and 199.622 and 108.780 and 152.854 and 112.730 and 224.397 and 139.120 and 99.534
same,Serum PTH,serum PTH [3]; [18],102.683
same,Serum PTH,serum PTH [3]; [19],56.632 and 140.686 and 84.483 and 109.613
same,Serum PTH,serum PTH [3]; [20],15.500 and 54.018
same,Serum PTH,serum PTH [3]; [21],42.818 and 15.500 and 32.934
same,Serum PTH,serum PTH [3]; [22],141.716 and 112.265 and 135.633 and 62.560
same,Serum PTH,serum PTH [3]; [23],155.316 and 207.503 and 133.171
same,Serum PTH,serum PTH [3]; [24],158.155 and 206.865 and 189.885 and 126.682
same,Serum PTH,serum PTH [3]; [25],109.678 and 94.507 and 141.634 and 226.462
same,Doses that significantly reduced the serum PTH level,serum PTH [3]; [26],≥ 1 mg/kg
same,Gastric Emptying,"gastric emptying; 100 mg/kg, group mean",20.02%
same,Gastric Emptying,"gastric emptying; 100 mg/kg, individual rats",7.17% and 20.46% and 31.67% and 44.76% and 1.77% and 30.22% and 22.74% and 1.35%
same,Gastric Emptying,"gastric emptying; cinacalcet 10 mg/kg oral, 30 minutes, group mean, n = 8",55.17%
same,Gastric Emptying,"gastric emptying; cinacalcet 10 mg/kg oral, 30 minutes, individual rats",44.96% and 61.79% and 57.42% and 52.23% and 44.34% and 52.86% and 67.60% and 60.12%
same,Gastric Emptying,"gastric emptying; cinacalcet 30 mg/kg oral, 30 minutes, group mean, n = 8",35.72%
same,Gastric Emptying,"gastric emptying; cinacalcet 30 mg/kg oral, 30 minutes, individual rats",28.35% and 14.64% and 23.99% and 37.69% and 38.94% and 32.71% and 40.60% and 68.85%
same,Dose inhibiting gastric emptying relative to the dose required for a significant PTH reduction,gastric emptying; oral,approximately 30 fold
same,Doses that caused a significant delay in gastric emptying,"gastric emptying; oral, vs vehicle group",≥ 30 mg/kg

# From article PMC5882164, “A novel calcimimetic agent, evocalcet (MT-4580/KHK7580), suppresses the parathyroid cell function with little effect on the gastrointestinal tract or CYP isozymes in vivo and in vitro” (PLoS ONE, 2018)
